Where a name gives a salt, the structure may show the parent alone.
Tests used:
Rec1_7 (CACA 282) mRNA = assay: quantified RT-PCR, Rec1_7; type: in vivo, rabbit; conditions: for Relative Abundance Rec1_7, 100 pg F: hypercholesterolemic plus lercanidipine racemate, eight weeks, H2 (normocholesterolemic)=1.0
Experimental: (§1) Nineteen of the isolated DST clones were further validated using RT-PCR analyses; the data are presented in FIGS. 6-24 and in Tables 5-23, below. For each DST examined, the optimal annealing temperature and reagent conditions were determined for the corresponding set of primers (see Table 25) based on results from a preliminary experiment. In eight separate reactions, each set of primers was assayed to find the optimal conditions by adjusting the following four parameters: primer concentration, dNTP concentration, MgCl2 concentration, and number of Taq polymerase units. Once optimal conditions were determined, each DST was run in duplicate multiple simultaneous reactions which usually included at least four dilutions of template (cDNA library), plus control reactions lacking template, and six sequential data points for numbers of cycles.
(§2) Reactions were performed using “Hot Start” PCR with the Clontech TaqStart antibody system (Cat. #5400-1). Each reaction contained 1 ml of the cDNA library dilution as template, determined amounts of AmpliTaq DNA polymerase (cat. #N808-0156), MgCl2, dNTPs (GibcoBRL cat. #10297-018), primer, and Clontech TaqStart Antibody in a 20 ml final reaction volume using 10×Taq buffer II (without MgCl2). Typically, a master mix containing all components except the template was prepared and aliquoted. Various templates were then added to these master mix samples and 20 ml volumes were subsequently dispensed into individual reaction tubes. At various times during the PCR run, tubes were removed sequentially on a predetermined schedule in order to quantitate expression of the target DST over a “window” of cycle times. After amplification, the samples were quantified via fluorimetry.
(§3) PCR was performed at annealing temperatures that were five degrees above the average melting temperature of each primer pair. For primers greater than 10 bases (in a 0.05M salt solution), melting temperature was calculated using the following formula: Tm=59.9+41[% GC]−[675/Primer Length], where %GC is the decimal value. Following determination of the average melting temperature of the primer pair, the annealing temperature was determined by adding five degrees to the average melting temperature. PCR was performed using the following program: 1) 95 degrees Celsius, 3 minutes; 2) 95 degrees Celsius, 30 seconds; 3) TM+5 degrees Celsius, 30 seconds; 4) 72 degrees Celsius, for a time dependent on target length at 16 bp/second; 5) repeat steps 2-4 33 more cycles; 6) 72 degrees Celsius, 3 minutes; 7) 14 degrees Celsius, forever.
(§4) Following temperature cycling, 2 ml of the PCR reaction was added to 140 ml of a 1:280 dilution of PicoGreen (Molecular Probes cat. #P-11495 (10×100 ml)) in TE pH 7.5 in a 96-well Costar UV microtiter plate (Fisher cat. #07-200623). The samples were mixed gently for 1.5 minutes and allowed to equilibrate at room temperature in the dark for 15 minutes. The concentration of the PCR products was quantified by fluorimetry using a PerSeptive Biosystems CytoFluor series 4000 multi-well plate reader.
Background fluorescence was determined by using duplicate control samples that were cycled with all reaction components except the template. The mean value from these duplicate background control samples was subtracted from the corresponding experimental values prior to analyzing results. The sensitivity of the PicoGreen dsDNA assay is reported to be 250 pg/ml (50 pg dsDNA in a […] assay volume) using a fluorescence microplate reader such as was used in these measurements. […]

Rec1_21 (TTCC 165) mRNA = assay: quantified RT-PCR, Rec1_21; type: in vivo, rabbit; conditions: for Relative Abundance Rec1_21, 20 pg F: hypercholesterolemic plus lercanidipine racemate, eight weeks, H2 (normocholesterolemic)=1.0
Experimental: as §1, §2, §3, §4
Background fluorescence was determined by using duplicate control samples that were cycled with all reaction components except the template. The mean value from these duplicate background control samples was subtracted from the corresponding experimental values prior to analyzing results. The sensitivity of the PicoGreen dsDNA assay is reported to be 250 pg/ml (50 pg dsDNA in a […] assay volume) using a fluorescence microplate reader such as was used in these measurements.
FIG. 20 is a graphical representation of the results of RT-PCR using 20 pg of clone REC1—21 template, in which the amount of PCR product (measured in arbitrary fluorescence units) is plotted against number of cycles, where polyA enriched mRNA was extracted from aortas or rabbits that were normocholesterolemic (filled diamonds, “H2”) and hypercholestrolemic plus lercanidipine racemate, eight weeks (filled squares, “F”).

[1] = (R)-enantiomer compared with the other enantiomer of lercanidipine; cited from earlier work

Row | SMILES | Relative Abundance Rec1_7, 100 pg F (Rec1_7 (CACA 282) mRNA; cycle 24) | Relative Abundance Rec1_7, 100 pg F (Rec1_7 (CACA 282) mRNA; cycle 26) | Relative Abundance Rec1_7, 100 pg F (Rec1_7 (CACA 282) mRNA; cycle 28) | Relative Abundance Rec1_7, 100 pg F (Rec1_7 (CACA 282) mRNA; cycle 30) | Relative Abundance Rec1_7, 100 pg F (Rec1_7 (CACA 282) mRNA; cycle 32) | Relative Abundance Rec1_7, 100 pg F (Rec1_7 (CACA 282) mRNA; cycle 34) | expression of Rec1_7 at 8 weeks (RT-PCR study), in words (Rec1_7 (CACA 282) mRNA; hypercholesterolemic animals receiving lercanidipine racemate) | Relative Abundance Rec1_21, 20 pg F (Rec1_21 (TTCC 165) mRNA; cycle 24) | Relative Abundance Rec1_21, 20 pg F (Rec1_21 (TTCC 165) mRNA; cycle 26) | Relative Abundance Rec1_21, 20 pg F (Rec1_21 (TTCC 165) mRNA; cycle 28) | Relative Abundance Rec1_21, 20 pg F (Rec1_21 (TTCC 165) mRNA; cycle 30) | Relative Abundance Rec1_21, 20 pg F (Rec1_21 (TTCC 165) mRNA; cycle 32) | Relative Abundance Rec1_21, 20 pg F (Rec1_21 (TTCC 165) mRNA; cycle 34) | expression of Rec1_21 at 8 weeks (RT-PCR study), in words (Rec1_21 (TTCC 165) mRNA; hypercholesterolemic animals receiving lercanidipine) | effectiveness in lowering blood pressure, less effective [1]
1 | COC(=O)C1=C(C)NC(C)=C(C(=O)OC(C)(C)CN(C)CCC(c2ccccc2)c2ccccc2)C1c1cccc([N+](=O)[O-])c1 (racemic) [lercanidipine, lercanidipine hydrochloride] | 0.00 | 0.00 | 0.06 | 0.10 | 0.3 | 0.5 | down-regulated | 0.0 | 0.0 | 0.0 | 0.1 | 0.1 | 0.3 | substantially decreased | –
2 | COC(=O)C1=C(C)NC(C)=C(C(=O)OC(C)(C)CN(C)CCC(c2ccccc2)c2ccccc2)[C@@H]1c1cccc([N+](=O)[O-])c1.Cl (single isomer, unassigned) [(R)-lercanidipine] | – | – | – | – | – | – | – | – | – | – | – | – | – | – | 2-3 orders of magnitude

— patent US20030215817A1, “Modulation of gene expression in formation of fatty atherosclerotic lesions” (priority 2003, published 2003)
